Columns and labels:
[1] = for mass density: 298.1 K, 101.33 kPa, Liquid, Vibrating tube method; for surface tension liquid-gas: 298.15 K, Drop volume
[2] = xn = mol fraction of the nth substance listed; conditions: 298.15 K; for surface tension liquid-gas: Drop volume; for mass density: 101 kPa, Liquid, Vibrating tube method

CCCCn1cc[n+](C)c1.F[B-](F)(F)F [1-butyl-3-methylimidazolium tetrafluoroborate]
[1]
Conditions	mass density [kg/m3]	surface tension liquid-gas [mN/m]
–	1201.2	45.33

CCCCn1cc[n+](C)c1.F[B-](F)(F)F [1-butyl-3-methylimidazolium tetrafluoroborate] + CCO
[2]
Conditions	mass density [kg/m3]	surface tension liquid-gas [mN/m]
x1 = 0.0986	897.2	22.83
x1 = 0.2002	977.4	23.28
x1 = 0.2553	1010.7	24.65
x1 = 0.2881	1027.9	–
x1 = 0.3284	1046.8	25.53
x1 = 0.3999	1075.5	26.55
x1 = 0.4202	1082.7	27.2
x1 = 0.5024	1108.6	28.87
x1 = 0.6082	1135.9	31.32
x1 = 0.7107	1157.4	34.9
x1 = 0.804	1173.7	37.99
x1 = 0.9059	1188.8	41.54
x1 = 1	1201.2	45.33

CCCCn1cc[n+](C)c1.F[B-](F)(F)F [1-butyl-3-methylimidazolium tetrafluoroborate] + O
[2]
Conditions	mass density [kg/m3]	surface tension liquid-gas [mN/m]
x1 = 0.0001	–	61.54
x1 = 0.0003	–	61.5
x1 = 0.0017	1000.9	–
x1 = 0.0035	1004.8	–
x1 = 0.0039	–	57.3
x1 = 0.0052	1008.5	–
x1 = 0.0058	–	54.34
x1 = 0.0069	1011.9	–
x1 = 0.0074	–	51.77
x1 = 0.0092	1014.4	–
x1 = 0.0094	–	50.63
x1 = 0.0197	1030.6	–
x1 = 0.02	–	46.93
x1 = 0.0335	1048.2	–
x1 = 0.0404	–	46.02
x1 = 0.0498	–	46.27
x1 = 0.0502	1065.2	–
x1 = 0.0586	–	46.25
x1 = 0.0698	–	46.14
x1 = 0.0736	1084.1	–
x1 = 0.0799	–	45.99
x1 = 0.0998	–	46.19
x1 = 0.1013	–	45.63
x1 = 0.1072	1103.9	–
x1 = 0.1081	–	46.23
x1 = 0.139	–	46.22
x1 = 0.1398	1118	–
x1 = 0.1621	–	46.16
x1 = 0.1688	1128	–
x1 = 0.1788	–	46.06
x1 = 0.1818	–	45.91
x1 = 0.2128	–	45.62
x1 = 0.252	1148.2	–
x1 = 0.2963	1156.2	46.25
x1 = 0.3734	1166.9	–
x1 = 0.4067	1169.4	46.32
x1 = 0.4408	1171.9	–
x1 = 0.4946	1177.9	–
x1 = 0.5252	1178.7	–
x1 = 0.5304	1181.5	46.02
x1 = 0.5723	1181.8	–
x1 = 0.6	1185	–
x1 = 0.6326	1187.9	45.81
x1 = 0.6922	1189.4	–
x1 = 0.7065	1191.1	45.68
x1 = 0.8003	–	45.52
x1 = 0.8167	1193.7	–
x1 = 0.9005	1197.8	45.41
x1 = 1	1201.2	45.33

CCn1cc[n+](C)c1.F[B-](F)(F)F [1-ethyl-3-methylimidazolium tetrafluoroborate]
[1]
Conditions	mass density [kg/m3]	surface tension liquid-gas [mN/m]
–	1279.9	52.81

CCn1cc[n+](C)c1.F[B-](F)(F)F [1-ethyl-3-methylimidazolium tetrafluoroborate] + CCO
[2]
Conditions	mass density [kg/m3]	surface tension liquid-gas [mN/m]
x1 = 0.6087	1190.3	33.58
x1 = 0.7056	1225.5	37.37
x1 = 0.8072	1241.6	42.77
x1 = 0.9054	1262.6	47.41
x1 = 1	1279.9	53.04

CCn1cc[n+](C)c1.F[B-](F)(F)F [1-ethyl-3-methylimidazolium tetrafluoroborate] + O
[2]
Conditions	mass density [kg/m3]	surface tension liquid-gas [mN/m]
x1 = 0.004	1005.5	67.38
x1 = 0.0077	1013.2	65
x1 = 0.0123	1021.8	62.87
x1 = 0.0132	1023.4	61.91
x1 = 0.0288	1046.4	58.15
x1 = 0.0483	1068.2	57.31
x1 = 0.0709	1088.6	55.92
x1 = 0.102	1111.7	55.24
x1 = 0.1418	1135.8	54.43
x1 = 0.2141	1169.1	53.8
x1 = 0.2191	1171	–
x1 = 0.2894	–	54.15
x1 = 0.3118	1200.3	–
x1 = 0.4011	–	54.01
x1 = 0.4551	1230	–
x1 = 0.4987	1236.7	–
x1 = 0.5074	–	53.88
x1 = 0.5923	1248.6	–
x1 = 0.6018	–	53.73
x1 = 0.691	1258.5	–
x1 = 0.7534	–	53.51
x1 = 0.7774	1265.5	–
x1 = 0.9015	–	53.25
x1 = 1	1279.9	53.04

CCCCCCn1cc[n+](C)c1.F[B-](F)(F)F [1-hexyl-3-methylimidazolium tetrafluoroborate]
[1]
Conditions	mass density [kg/m3]	surface tension liquid-gas [mN/m]
–	1145.4	37.33

CCCCCCn1cc[n+](C)c1.F[B-](F)(F)F [1-hexyl-3-methylimidazolium tetrafluoroborate] + CCO
[2]
Conditions	mass density [kg/m3]	surface tension liquid-gas [mN/m]
x1 = 0.098	893.9	23.11
x1 = 0.1998	964.6	24.21
x1 = 0.3	1011.9	25.62
x1 = 0.3991	1046.1	27.09
x1 = 0.5079	1073.7	28.82
x1 = 0.6123	1095.5	30.74
x1 = 0.702	1108.8	32.47
x1 = 0.803	1123.9	34.22
x1 = 0.9	1134.7	35.75
x1 = 1	1145.5	37.33

CCCCCCn1cc[n+](C)c1.F[B-](F)(F)F [1-hexyl-3-methylimidazolium tetrafluoroborate] + O
[2]
Conditions	mass density [kg/m3]	surface tension liquid-gas [mN/m]
x1 = 0.3032	1115.8	37.93
x1 = 0.4059	1123.9	37.79
x1 = 0.5058	1129.2	37.65
x1 = 0.6061	1133.8	37.52
x1 = 0.7057	1137.4	37.4
x1 = 0.803	1140.3	37.35
x1 = 0.9002	1142.6	37.33
x1 = 1	1145.5	37.33

CCCCCCCC[n+]1ccn(C)c1.F[B-](F)(F)F [1-methyl-3-octylimidazolium tetrafluoroborate]
[1]
Conditions	mass density [kg/m3]	surface tension liquid-gas [mN/m]
–	1104.2	32.84

CCCCCCCC[n+]1ccn(C)c1.F[B-](F)(F)F [1-methyl-3-octylimidazolium tetrafluoroborate] + CCO
[2]
Conditions	mass density [kg/m3]	surface tension liquid-gas [mN/m]
x1 = 0.1012	893	23.33
x1 = 0.2034	957.9	24.7
x1 = 0.3	996.6	25.99
x1 = 0.4096	1026.4	27.28
x1 = 0.5125	1047.8	27.9
x1 = 0.6156	1065.2	28.88
x1 = 0.7207	1079.3	29.9
x1 = 0.815	1088.8	30.86
x1 = 0.9014	1095.6	31.84
x1 = 1	1104.2	32.82

CCO [ethanol]
[1]
Conditions	mass density [kg/m3]	surface tension liquid-gas [mN/m]
–	785.8	22

CCO [ethanol] + CCn1cc[n+](C)c1.F[B-](F)(F)F
[2], x2 = 0
Conditions	mass density [kg/m3]	surface tension liquid-gas [mN/m]
–	785.8	52.81

O [water]
Conditions	surface tension liquid-gas [mN/m]
[1]	71.35

O [water] + CCCCn1cc[n+](C)c1.F[B-](F)(F)F
Conditions	surface tension liquid-gas [mN/m]
[2], x2 = 0	71.35

O [water] + CCn1cc[n+](C)c1.F[B-](F)(F)F
Conditions	surface tension liquid-gas [mN/m]
[2], x2 = 0	71.35

From the NIST ThermoML archive (doi:10.1016/j.fluid.2009.07.010)
